# Laboratory results taken from article PMC4718634, “Murine GPRC6A Mediates Cellular Responses to L-Amino Acids, but Not Osteocalcin Variants” (PLoS ONE, 2016).
# Read-outs that look alike come from different tables or passages of the source.
# Legend:
# GPRC6A = system: GPRC6A; parameters: method as in PMID 15576628; settings: chimera with goldfish 5.24 receptor and full length GPRC6A; ref [1]; cited from earlier work
# mGPRC6A (mouse GPRC6A) [1] = target: T1, mGPRC6A (mouse GPRC6A) (Mus musculus, UniProt Q8K4Z6); test: Inositol phosphate (IP-One HTRF) accumulation, FlpIn-TREx-HEK293-mGPRC6A cells; type: cell-based; settings: for EC50: 30 min, HTRF, HBSS pH 7.2, mean ± SEM of at least three independent experiments, read-out: pEC50, inositol phosphate accumulation (converted)
# T1 sequence (Q8K4Z6 21-928): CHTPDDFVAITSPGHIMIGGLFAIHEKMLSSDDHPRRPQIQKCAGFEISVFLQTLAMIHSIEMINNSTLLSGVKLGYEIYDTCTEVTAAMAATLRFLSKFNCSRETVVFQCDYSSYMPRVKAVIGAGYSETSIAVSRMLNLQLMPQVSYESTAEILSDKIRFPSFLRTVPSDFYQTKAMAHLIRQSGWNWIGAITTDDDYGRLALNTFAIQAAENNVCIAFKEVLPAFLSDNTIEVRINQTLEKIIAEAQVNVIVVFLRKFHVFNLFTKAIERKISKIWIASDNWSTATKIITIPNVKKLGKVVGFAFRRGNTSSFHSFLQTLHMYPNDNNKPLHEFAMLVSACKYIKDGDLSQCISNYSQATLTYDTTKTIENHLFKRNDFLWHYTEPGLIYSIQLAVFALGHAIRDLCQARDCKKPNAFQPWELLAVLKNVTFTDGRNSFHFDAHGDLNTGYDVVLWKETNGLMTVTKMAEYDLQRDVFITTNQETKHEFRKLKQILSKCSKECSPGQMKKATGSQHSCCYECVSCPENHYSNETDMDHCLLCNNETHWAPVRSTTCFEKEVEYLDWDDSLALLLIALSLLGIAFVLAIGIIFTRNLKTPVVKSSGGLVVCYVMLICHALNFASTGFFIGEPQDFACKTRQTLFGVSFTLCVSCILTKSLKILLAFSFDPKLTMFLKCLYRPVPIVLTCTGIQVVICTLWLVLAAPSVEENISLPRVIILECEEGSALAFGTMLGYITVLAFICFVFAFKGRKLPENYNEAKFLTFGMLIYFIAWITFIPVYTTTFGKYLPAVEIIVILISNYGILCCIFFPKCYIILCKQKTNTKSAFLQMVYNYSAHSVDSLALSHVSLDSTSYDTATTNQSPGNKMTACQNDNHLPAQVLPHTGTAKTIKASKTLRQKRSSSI
# Method: (§1) pcDNA 5/FRT/TO constructs were isogenically integrated into a FlpIn-TREx-HEK293 cell line (Life Technologies). FlpIn-TREx-HEK293-mGPRC6A and FlpIn-TREx-HEK293-hGPRC6A cells were then selected using 600 μg/ml hygromycin and 5 μg/ml blasticidin and grown in culture medium consisting of Dulbecco’s Modified Eagle Medium (DMEM), supplemented with 10% (v/v) foetal bovine serum (FBS) at 37°C in 5% CO2 and were sub-cultured in a 1:3 ratio every 3–4 days. Cells were cultured overnight in the presence of 1 μg/ml tetracycline to induce GPRC6A expression. […] 48 h after transfection, cells were selected using 3 μg/ml puromycin and grown as above.
# Inositol phosphate (IPX) accumulation experiments were performed using the IP-One HTRF® assay kit (Cisbio, France). Briefly, 24h after transfection with G proteins (as above), 10^5 cells were seeded per well in PDL-coated, 96-well white plates and incubated overnight. Cells were then washed 2 x 2h at 37°C in HBSS buffer (pH 7.2) containing 20 mM HEPES, 3.5 mM NaHCO3, 1 mM CaCl2 and 0.1% (w/v) BSA. Test compounds were then prepared in the kit stimulation buffer containing 2 mM CaCl2; cells were then incubated with 70 μl of drugs for 30 min, after which 15 μl of both IP1-D2 and Ab-Cryp were added to the cells, followed by a 1 h incubation at RT. Plates were read using an Envision plate reader (Perkin Elmer), using an HTRF protocol. Results were calculated from the 665nm / 620nm HTRF ratio (Ratio = A665nm/A620nm x 10^4) and expressed as a percentage of the maximal response obtained.
# Concentration-response data were analysed using a three or four parameter logistic function (Motulsky & Christopoulos, 2004) to generate estimates of agonist potency (LogEC50). Data for all HEK293 assays represent the mean ± SEM of at least three independent experiments (except cell impedance, n = 2). For GLP-1 release, the data represent mean ± SEM of three to five independent experiments (except for OCN, wash; n = 2). For insulin release assays, data represent the mean ± SEM of three independent experiments (except for islet studies; n = 2). Insulin release data were normalised to the response to vehicle in either low or high [glucose]. Statistical analysis for GLP-1 release data were performed by one-way ANOVA, followed by Sidak’s multiple comparisons test (treating wash / no wash datasets separately). Statistical analyses for insulin release data were performed by two-way ANOVA (with [glucose] and drug treatment as group variables), followed by Sidak’s multiple comparisons test. Where only high [glucose] groups were evaluated, statistical analysis was by one-way ANOVA followed by Sidak’s multiple comparisons test.
# mGPRC6A (mouse GPRC6A) [2] = target: T1, mGPRC6A (mouse GPRC6A); test: Cyclic AMP accumulation, HEK293-pIRES-puro6-mGPRC6A cells; type: cell-based; settings: pIRES-puro6 higher-expressing line, S2 Fig
# Method: as §1
# HEK293-mGPRC6A cells were seeded at a density of 10^5 cells per well into PDL-coated 96-well plates and incubated overnight in DMEM, supplemented with 10% FBS (v/v) at 37°C in 5% CO2. Cells were then incubated in 90 μl of stimulation buffer (HBSS containing 5 mM HEPES, 0.1% BSA (w/v), 0.5 mM IBMX; pH 7.4) for 30 min at 37°C. Test compounds (10 μl at 10 x final) were added and cells were incubated for an additional 30 min at 37°C. The medium was removed and cells were incubated in 50 μl of ice-cold 100% ethanol. […] Samples were analysed using the Alphascreen® cAMP assay kit (Perkin Elmer) following manufacturer instructions. […] After overnight (16 h) incubation at RT, plates were read using the Envision plate reader.
smiles,measurement,setting,value
NCCC[C@H](N)C(=O)O [L-ornithine],agonist response of GPRC6A,GPRC6A,mediates responses to L-amino acids
same,EC50,mGPRC6A (mouse GPRC6A) [1]; co-expression of GαqG66D,100 µM
same,EC50,mGPRC6A (mouse GPRC6A) [1]; co-expression of wild-type Gαq,1000 µM
same,potency of L-ornithine with GαqG66D compared to wild-type Gαq,mGPRC6A (mouse GPRC6A) [1]; inositol phosphate accumulation,ten-fold higher potency
same,inhibition of forskolin-stimulated cAMP,mGPRC6A (mouse GPRC6A) [2]; forskolin 3 μM,none of the ligands inhibit
same,stimulation of cAMP accumulation,mGPRC6A (mouse GPRC6A) [2],Neither L-ornithine nor OCN variants stimulate cAMP accumulation
